Reference: paper PMC6017707, “Structure Related Inhibition of Enzyme Systems in Cholinesterases and BACE1 In Vitro by Naturally Occurring Naphthopyrone and Its Glycosides Isolated from Cassia obtusifolia” (Molecules : A Journal of Synthetic Chemistry and Natural …, 2017)
“And” between values parts separate entries of the source, which are not always exact repeats. Identical values can stand only once. “Also recorded” adds a separate entry of the source. Like-named read-outs stand apart in the source and are kept apart here.

Columns and labels:
human recombinant BACE1 [1] = target: T1, human recombinant BACE1 (Homo sapiens, UniProt P56817); experiment: In vitro BACE1 FRET enzyme assay; format: biochemical; details: for BACE1 inhibitory activity (in words): at concentrations up to 200 µM; for IC50: log dose inhibition curve
T1 construct: purchased Pan Vera Co. (Madison, WI, USA)
T1 sequence (P56817 46-501): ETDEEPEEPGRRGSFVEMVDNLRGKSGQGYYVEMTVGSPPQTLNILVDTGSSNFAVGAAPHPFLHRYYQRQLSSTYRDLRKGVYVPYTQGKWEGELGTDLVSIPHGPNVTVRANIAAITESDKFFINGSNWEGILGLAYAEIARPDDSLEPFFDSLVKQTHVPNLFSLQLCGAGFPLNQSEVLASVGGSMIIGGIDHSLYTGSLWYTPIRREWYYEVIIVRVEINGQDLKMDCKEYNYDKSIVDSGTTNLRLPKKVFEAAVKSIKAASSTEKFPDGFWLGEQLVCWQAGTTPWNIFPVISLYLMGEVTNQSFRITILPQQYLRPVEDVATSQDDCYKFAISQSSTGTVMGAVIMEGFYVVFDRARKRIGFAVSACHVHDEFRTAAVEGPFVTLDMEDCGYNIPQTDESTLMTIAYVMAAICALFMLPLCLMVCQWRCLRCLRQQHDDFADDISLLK
Method: Assays were performed according to the supplied manual (Pan Vera Co.) with selected modifications, as described previously. […] Fluorescence was measured with a microplate spectrophotometer (Molecular Devices). The percent of inhibition (%) was obtained by the following equation: % Inhibition = [1 − (S60 − S0)/(C60 − C0)] × 100, where C60 was the fluorescence of the control (enzyme, buffer, and substrate) after incubation for 60 min, C0 was the initial fluorescence of the control, S60 was the fluorescence of the tested samples (enzyme, sample solution, and substrate) after incubation for 60 min, and S0 was the initial fluorescence of the tested samples. To account for the quenching effect of samples, the sample solution was added to a separate reaction mixture C, and any reduction in fluorescence by the sample was investigated.

[2] = target: T2, Electric eel acetylcholinesterase (Electrophorus electricus, UniProt O42275); experiment: In vitro AChE inhibition assay (Ellman spectrophotometric method); format: biochemical
T2 construct: purchased Sigma Co. (St. Louis, MO, USA)
T2 sequence (O42275 24-633): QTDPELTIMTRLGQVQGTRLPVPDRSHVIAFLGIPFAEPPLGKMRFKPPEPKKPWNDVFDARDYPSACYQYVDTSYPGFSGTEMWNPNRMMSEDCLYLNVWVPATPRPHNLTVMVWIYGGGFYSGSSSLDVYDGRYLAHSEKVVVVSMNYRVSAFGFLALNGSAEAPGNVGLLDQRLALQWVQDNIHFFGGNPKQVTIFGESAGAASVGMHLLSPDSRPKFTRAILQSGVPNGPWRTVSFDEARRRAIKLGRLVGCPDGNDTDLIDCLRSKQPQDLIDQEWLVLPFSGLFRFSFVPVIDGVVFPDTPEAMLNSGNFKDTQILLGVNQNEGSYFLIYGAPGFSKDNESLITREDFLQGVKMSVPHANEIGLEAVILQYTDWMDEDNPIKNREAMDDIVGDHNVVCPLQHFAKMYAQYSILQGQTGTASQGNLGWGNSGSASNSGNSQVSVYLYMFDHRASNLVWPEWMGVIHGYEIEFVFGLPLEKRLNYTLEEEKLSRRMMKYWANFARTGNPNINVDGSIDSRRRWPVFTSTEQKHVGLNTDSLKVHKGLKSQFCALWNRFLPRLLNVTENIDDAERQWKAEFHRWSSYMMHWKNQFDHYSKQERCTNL
Method: (§1) The inhibitory activities of isolated compounds against ChEs were measured using the spectrophotometric method, as described previously. Briefly, AChI and BCh were used as the substrates to assay the inhibition of AChE and BChE, respectively. Each reaction mixture contained 140 µL of sodium phosphate buffer (pH 8.0); 20 µL of compounds (final conc., 100 µM); and, 20 µL of either AChE or BChE solution, which was mixed and incubated for 15 min at room temperature. […] Reactions were initiated by the addition of 10 µL of DTNB and 10 µL of either AChI or BCh. […] All of the reactions were performed in triplicate and recorded in 96-well microplate format using a microplate spectrophotometer (Molecular Devices, Sunnyvale, CA, USA). Percent inhibition was calculated as (1-S/E) × 100, where E and S were the respective enzyme activities without and with the tested sample, respectively.

[3] = target: T3, horse serum butyrylcholinesterase (Equus caballus, UniProt P81908); experiment: In vitro BChE inhibition assay (Ellman spectrophotometric method); format: biochemical
T3 construct: horse-serum BChE (EC 3.1.1.8); purchased Sigma Co. (St. Louis, MO, USA); host or cells: horse serum
T3 sequence (P81908 whole entry): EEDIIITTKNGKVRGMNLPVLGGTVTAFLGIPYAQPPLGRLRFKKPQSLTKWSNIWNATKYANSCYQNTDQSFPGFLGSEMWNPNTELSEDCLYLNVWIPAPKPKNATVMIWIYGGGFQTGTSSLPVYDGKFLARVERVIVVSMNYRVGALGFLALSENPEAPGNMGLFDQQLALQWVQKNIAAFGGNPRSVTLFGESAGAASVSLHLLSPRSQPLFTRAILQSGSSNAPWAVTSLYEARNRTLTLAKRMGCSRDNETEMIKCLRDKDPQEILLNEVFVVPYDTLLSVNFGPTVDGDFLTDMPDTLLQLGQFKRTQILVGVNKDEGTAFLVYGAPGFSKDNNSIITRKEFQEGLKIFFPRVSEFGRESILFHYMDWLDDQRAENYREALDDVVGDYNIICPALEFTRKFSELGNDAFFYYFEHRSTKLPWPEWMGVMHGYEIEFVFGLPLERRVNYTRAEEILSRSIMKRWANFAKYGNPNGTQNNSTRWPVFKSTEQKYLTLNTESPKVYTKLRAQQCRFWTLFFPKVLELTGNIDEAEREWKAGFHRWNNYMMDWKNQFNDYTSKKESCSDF
Method: as §1

human recombinant BACE1 [4] = target: T1, human recombinant BACE1; details: cited from earlier work; for BACE1 inhibitory activity (in words): compounds isolated from n-BuOH fraction in earlier study
[5] = set-up: method as in PMID 10319159; details: cited from earlier work
[6] = target: T2, Electric eel acetylcholinesterase; experiment: Enzyme kinetic analysis with AChE (Dixon and Lineweaver-Burk plots); format: biochemical
Method: Inhibition constants (Ki) were determined by the interpretation of Dixon plots, where the x-axis intercept was taken as Ki.

human recombinant BACE1 [7] = target: T1, human recombinant BACE1; experiment: Enzyme kinetic analysis with BACE1 (Dixon and Lineweaver-Burk plots); format: biochemical
Method: Assays were performed according to the supplied manual (Pan Vera Co.) with selected modifications, as described previously. Briefly, mixtures of 10 µL of assay buffer (50 mM sodium acetate, pH 4.5), 10 µL of BACE1 (1.0 U/mL), 10 µL of the substrate (750 nM Rh-[…]-Quencher in 50 mM, ammonium bicarbonate), and 10 µL of compounds (final conc., 100 µM) dissolved in 10% DMSO were incubated for 60 min at 25 °C in the dark. The proteolysis of two fluorophores (Rh-[…]-Quencher) by BACE1 was monitored by the formation of fluorescent donor Rh-EVNL (530–545 nm, excitation; 570–590 nm, emission), the abundance of which was determined by measuring increase in fluorescence excited at 545 nm and recorded at 585 nm. Fluorescence was measured with a microplate spectrophotometer (Molecular Devices). The percent of inhibition (%) was obtained by the following equation: % Inhibition = [1 − (S60 − S0)/(C60 − C0)] × 100, where C60 was the fluorescence of the control (enzyme, buffer, and substrate) after incubation for 60 min, C0 was the initial fluorescence of the control, S60 was the fluorescence of the tested samples (enzyme, sample solution, and substrate) after incubation for 60 min, and S0 was the initial fluorescence of the tested samples. […]

[8] = mean ± S.E.M of triplicate experiments, read-out: BACE1 IC50
[9] = mean ± S.E.M of triplicate experiments, log dose inhibition curve, read-out: AChE IC50
[10] = mean ± S.E.M of triplicate experiments, log dose inhibition curve, read-out: BChE IC50

Q: Which “BACE1 inhibitory activity (in words)” value (human recombinant BACE1 [1]) does the source give for `COc1cc(O[C@@H]2O[C@H](CO[C@@H]3O[C@H](CO)[C@@H](O)[C@H](O[C@@H]4O[C@H](CO)[C@@H](O)[C@H](O)[C@H]4O)[C@H]3O)[C@@H](O)[C@H](O)[C@H]2O)c2c(O)c3c(=O)cc(C)oc3cc2c1` [Compound 6, rubrofusarin 6-O-β-D-triglucoside] here?
A: no significant inhibitory activity

Q: What about the IC50 (human recombinant BACE1 [1]; [8]) of the same molecule?
A: > 200 µM

Q: What about the IC50 [2, 9] of the same molecule?
A: 82.3 ± 1.63 µM

Q: And the IC50 [3, 10]?
A: > 200 µM

Q: Which “BACE1 inhibitory activity (in words)” value (human recombinant BACE1 [4]) does the source give for toralactone gentiobioside here?
A: moderate activity

Q: Which IC50 [2] does the source give for `COc1ccc2cc3[n+](cc2c1OC)CCc1cc2c(cc1-3)OCO2` [Berberine, berberine, reference compound] here?
A: 0.68 ± 0.01 µM

Q: With `COc1cc(O[C@@H]2O[C@H](CO[C@@H]3O[C@H](CO)[C@@H](O)[C@H](O)[C@H]3O)[C@@H](O)[C@H](O)[C@H]2O)c2c(c1)cc(O)c1c(=O)cc(C)oc12` [Compound 5, isorubrofusarin 10-O-β-D-gentiobioside] as the molecule, how does the “BACE1 inhibitory activity (in words)” value (human recombinant BACE1 [1]) read?
A: no significant inhibitory activity

Q: And the IC50 (human recombinant BACE1 [1]; [8])?
A: > 200 µM

Q: And the IC50 [2, 9]?
A: 83.5 ± 1.56 µM

Q: What about the IC50 [3, 10] of the same molecule?
A: > 200 µM

Q: What does the source list for `COc1cc(O)c2c(O)c3c(=O)cc(C)oc3cc2c1` [Compound 1, rubrofusarin]?
A: IC50 (human recombinant BACE1 [1]; BACE1 IC50, mean ± S.E.M of triplicate experiments): 90 ± 2.38 µM; IC50 [2]: 124 ± 1.39 µM; IC50 [3]: > 200 µM

Q: What does the source list for `COc1cc(O[C@@H]2O[C@H](CO[C@@H]3O[C@H](CO)[C@@H](O)[C@H](O)[C@H]3O)[C@@H](O)[C@H](O)[C@H]2O)c2c(O)c3c(=O)cc(C)oc3cc2c1` [Compound 3, rubrofusarin 6-O-β-D-gentiobioside]?
A: Radical scavenging activity relative to 4 [5]: twice; Ki ([6]; Dixon plot, read-out: Ki Value (AChE inhibition constant)): 12.8 µM; Inhibition Type (AChE) ([6]; Lineweaver-Burk plot): mixed type inhibition; also recorded: Mixed type ^c; IC50 (human recombinant BACE1 [1]; [8]): 85.7 ± 3.98 µM; AChE inhibition relative to 5, 6 and 4 [2]: five times; AChE inhibition relative to 1 ([2]; fold more effective than 1 (no sugar moiety)): eight times; AChE inhibition relative to 2 ([2]; fold more effective than 2 (one sugar moiety)): nine times; IC50 [2, 9]: 15.9 ± 0.32 µM; IC50 [3, 10]: 141.2 ± 1.23 µM

Q: Which IC50 (human recombinant BACE1 [1]; [8]) does the source give for `Cc1cc(=O)c2c(O)c3c(OC4OC(CO)C(O)C(O)C4O)cc(O)cc3cc2o1` [Compound 4, nor-rubrofusarin 6-O-β-D-glucoside] here?
A: 86 µM and 14.4 µM

Q: What about the IC50 [2, 9] of the same molecule?
A: 86 ± 2.01 µM

Q: What about the IC50 [3, 10] of the same molecule?
A: > 200 µM

Q: And the “BACE1 inhibitory activity (in words)” value (human recombinant BACE1 [4])?
A: most potent BACE1 inhibitory activity

Q: What about the Ki (human recombinant BACE1 [7]; Dixon plot, read-out: Ki Value (BACE1 inhibition constant)) of the same molecule?
A: 10 µM

Q: What about the “Inhibition Type (BACE1)” value (human recombinant BACE1 [7]; Lineweaver-Burk plot) of the same molecule?
A: mixed type of inhibition; also recorded: Mixed type ^e

Q: For `COc1cc(OC2OC(CO)C(O)C(O)C2O)c2c(O)c3c(=O)cc(C)oc3cc2c1` [Compound 2, rubrofusarin 6-O-β-D-glucopyranoside], which IC50 (human recombinant BACE1 [1]; [8]) is on record?
A: 148 µM and 191 µM

Q: What about the IC50 [2, 9] of the same molecule?
A: 148 ± 2.09 µM

Q: And the IC50 [3, 10]?
A: > 200 µM

Q: With `COc1cc(OC)c2c(=O)c(OC)c(-c3ccc(OC)c(OC)c3)oc2c1` [PMF, 3,5,7,3′,4′-pentamethoxyflavone, reference compound] as the molecule, how does the IC50 (human recombinant BACE1 [4]; read-out: BACE1 IC50, literature value for PMF) read?
A: 59.8 µM

Q: And the BACE1 inhibitor type (human recombinant BACE1 [4]; reported for PMF)?
A: noncompetitive inhibitor
